Assay results: patent publication US20260116920A1, “HUMAN TRANSFERRIN RECEPTOR BINDING PEPTIDE” (PEPTIDREAM INC., priority 2021, published 2026)
Positions of bridges follow the written chain, without caps; N, C: chain ends. Non-standard residues stand in square brackets, D forms with d. Residues, ends and D or L forms follow the SMILES beside them. *: point of attachment. Trp(1-CH2COOH) = N[C@@H](Cc1cn(CC(=O)O)c2ccccc12)C(=O)O; Nle(6-morpholino) = N[C@@H](CCCCN1CCOCC1)C(=O)O; Phe(3-COOH) = N[C@@H](Cc1cccc(C(=O)O)c1)C(=O)O; Trp(7-aza) = N[C@@H](Cc1c[nH]c2ncccc12)C(=O)O; NH(CH2CH2O)8Me = COCCOCCOCCOCCOCCOCCOCCOCCN*; NMePhe(3-Cl) = CN[C@@H](Cc1cccc(Cl)c1)C(=O)O; 3Pal(6-NH2) = Nc1ccc(C[C@H](N)C(=O)O)cn1; NMeY = CN[C@@H](Cc1ccc(O)cc1)C(=O)O; PEG4 = NCCOCCOCCOCCOCCC(=O)O; Carboxymethyl = O=C(O)C*

target: T1, human transferrin receptor (hTfR) (Homo sapiens, UniProt P02786); assay: Evaluation of molecular interaction between transferrin receptor (hTfR) and peptide using surface plasmon resonance (SPR); format: binding; details: peptide with linker, surface plasmon resonance; read-out: SPR (KD class for binding to hTfR)
T1 construct: made in house
T1 sequence (P02786 89-760 limits assumed): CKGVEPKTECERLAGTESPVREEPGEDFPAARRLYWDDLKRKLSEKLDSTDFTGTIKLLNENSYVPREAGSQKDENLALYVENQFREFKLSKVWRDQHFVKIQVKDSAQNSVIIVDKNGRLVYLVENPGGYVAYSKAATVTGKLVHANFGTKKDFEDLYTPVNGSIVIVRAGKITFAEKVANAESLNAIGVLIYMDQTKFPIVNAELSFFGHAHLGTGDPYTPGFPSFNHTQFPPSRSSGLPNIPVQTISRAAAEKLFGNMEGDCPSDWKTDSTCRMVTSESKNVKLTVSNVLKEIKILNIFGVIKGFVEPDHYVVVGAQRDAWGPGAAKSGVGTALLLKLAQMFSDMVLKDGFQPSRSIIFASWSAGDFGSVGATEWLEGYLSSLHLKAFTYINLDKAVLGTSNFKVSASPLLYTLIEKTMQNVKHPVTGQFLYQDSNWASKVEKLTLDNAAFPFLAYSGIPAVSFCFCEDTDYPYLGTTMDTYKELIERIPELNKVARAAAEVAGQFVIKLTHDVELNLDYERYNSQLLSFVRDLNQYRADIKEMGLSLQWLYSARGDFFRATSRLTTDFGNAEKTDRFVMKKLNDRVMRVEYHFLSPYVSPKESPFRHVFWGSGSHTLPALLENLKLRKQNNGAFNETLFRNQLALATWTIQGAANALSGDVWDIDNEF
Outline: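 Recombinant hTfR dimer (0.5 μM) immobilized on Ni-loaded NTA chip via EDC/NHS, ethanolamine-capped. Peptides at 5–100 nM in HEPES pH 8.0 buffer with 150 mM NaCl, 0.05% Tween 20, 0.1% BSA, 1.0% DMSO, flowed by single-cycle kinetics; KD from least-squares fit of sensorgrams.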

Structure (SMILES) | Kd [nM]
CC[C@H](C)[C@@H]1NC(=O)[C@H](Cc2ccc(OCC(=O)O)cc2)NC(=O)[C@H](Cc2ccc(O)cc2)NC(=O)[C@H](CC(N)=O)NC(=O)[C@H](Cc2cn(CC(=O)O)c3ccccc23)NC(=O)[C@H](C(C)C)NC(=O)[C@H](Cc2cccc(Cl)c2)N(C)C(=O)[C@H](C(C)C)NC(=O)[C@H](C)NC(=O)CSC[C@@H](C(=O)NCCOCCOCCOCCOCCC(N)=O)NC(=O)[C@H](Cc2ccc(O)cc2)N(C)C(=O)[C@H](Cc2cccc(C(=O)O)c2)NC(=O)[C@H](CCCCN2CCOCC2)NC(=O)[C@H](CCC(N)=O)NC(=O)[C@H]([C@@H](C)CC)NC1=O [compound 216] ({CH2CO}-AV[NMePhe(3-Cl)]V[Trp(1-CH2COOH)]NYY(Carboxymethyl)IIQ[Nle(6-morpholino)][Phe(3-COOH)][NMeY]C[PEG4]-NH2; thioether N-15) | 1 to 100
CC[C@H](C)[C@@H]1NC(=O)[C@H](Cc2ccc(OCC(=O)O)cc2)NC(=O)[C@H](Cc2ccc(O)cc2)NC(=O)[C@H](CC(N)=O)NC(=O)[C@H](Cc2cn(CC(=O)O)c3ccccc23)NC(=O)[C@H](C(C)C)NC(=O)[C@H](Cc2cccc(Cl)c2)N(C)C(=O)[C@H](C(C)C)NC(=O)[C@H](C)NC(=O)CSC[C@@H](C(=O)NCCOCCOCCOCCOCCC(N)=O)NC(=O)[C@H](Cc2ccc(O)cc2)N(C)C(=O)[C@H](Cc2cccc(C(=O)O)c2)NC(=O)[C@H](CCCCN2CCOCC2)NC(=O)[C@H](CCC(=O)NCCOCCOCCOCCOCCOCCOCCOCCOC)NC(=O)[C@H]([C@@H](C)CC)NC1=O [compound 217] ({CH2CO}-AV[NMePhe(3-Cl)]V[Trp(1-CH2COOH)]NYY(Carboxymethyl)IIE(NH(CH2CH2O)8Me)[Nle(6-morpholino)][Phe(3-COOH)][NMeY]C[PEG4]-NH2; thioether N-15) | 1 to 100
CC[C@H](C)[C@@H]1NC(=O)[C@H](Cc2ccc(OCC(=O)O)cc2)NC(=O)[C@H](Cc2ccc(O)cc2)NC(=O)[C@H](CC(N)=O)NC(=O)[C@H](Cc2c[nH]c3ncccc23)NC(=O)[C@H](C(C)C)NC(=O)[C@H](Cc2cccc(Cl)c2)N(C)C(=O)[C@H](C(C)C)NC(=O)[C@H](C)NC(=O)CSC[C@@H](C(=O)NCCOCCOCCOCCOCCC(N)=O)NC(=O)[C@H](Cc2ccc(O)cc2)N(C)C(=O)[C@H](Cc2ccncc2)NC(=O)[C@H](CCCNC(=N)N)NC(=O)[C@H](CCC(=O)NCCOCCOCCOCCOCCOCCOCCOCCOC)NC(=O)[C@H]([C@@H](C)CC)NC1=O [compound 218] | 1 to 100
CC[C@H](C)[C@@H]1NC(=O)[C@H](Cc2ccc(OCC(=O)O)cc2)NC(=O)[C@H](Cc2ccc(O)cc2)NC(=O)[C@H](CC(N)=O)NC(=O)[C@H](Cc2cn(CC(=O)O)c3ccccc23)NC(=O)[C@H](C(C)C)NC(=O)[C@H](Cc2cccc(Cl)c2)N(C)C(=O)[C@H](C(C)C)NC(=O)[C@H](C)NC(=O)CSC[C@@H](C(=O)NCCOCCOCCOCCOCCC(N)=O)NC(=O)[C@H](Cc2ccc(O)cc2)N(C)C(=O)[C@H](Cc2ccncc2)NC(=O)[C@H](CCCCN2CCOCC2)NC(=O)[C@H](CCC(=O)NCCOCCOCCOCCOCCOCCOCCOCCOC)NC(=O)[C@H]([C@@H](C)CC)NC1=O [compound 219] | 1 to 100
CC[C@H](C)[C@@H]1NC(=O)[C@H](Cc2ccc(OCC(=O)O)cc2)NC(=O)[C@H](Cc2ccc(O)cc2)NC(=O)[C@H](CC(N)=O)NC(=O)[C@H](Cc2c[nH]c3ncccc23)NC(=O)[C@H](C(C)C)NC(=O)[C@H](Cc2cccc(Cl)c2)N(C)C(=O)[C@H](C(C)C)NC(=O)[C@H](C)NC(=O)CSC[C@@H](C(=O)NCCOCCOCCOCCOCCC(N)=O)NC(=O)[C@H](Cc2ccc(O)cc2)N(C)C(=O)[C@H](Cc2cccc(C(=O)O)c2)NC(=O)[C@H](CCCCN2CCOCC2)NC(=O)[C@H](CCC(=O)NCCOCCOCCOCCOCCOCCOCCOCCOC)NC(=O)[C@H]([C@@H](C)CC)NC1=O [compound 220] ({CH2CO}-AV[NMePhe(3-Cl)]V[Trp(7-aza)]NYY(Carboxymethyl)IIE(NH(CH2CH2O)8Me)[Nle(6-morpholino)][Phe(3-COOH)][NMeY]C[PEG4]-NH2; thioether N-15) | 1 to 100
CC[C@H](C)[C@@H]1NC(=O)[C@H](Cc2ccc(OCC(=O)O)cc2)NC(=O)[C@H](Cc2ccc(O)cc2)NC(=O)[C@H](CC(N)=O)NC(=O)[C@H](Cc2c[nH]c3ncccc23)NC(=O)[C@H](C(C)C)NC(=O)[C@H](Cc2cccc(Cl)c2)N(C)C(=O)[C@H](C(C)C)NC(=O)[C@H](C)NC(=O)CSC[C@@H](C(=O)NCCOCCOCCOCCOCCC(N)=O)NC(=O)[C@H](Cc2ccc(O)cc2)N(C)C(=O)[C@H](CCC(=O)NCCOCCOCCOCCOCCOCCOCCOCCOC)NC(=O)[C@H](CCCNC(=N)N)NC(=O)[C@H](CCC(=O)NCCOCCOCCOCCOCCOCCOCCOCCOC)NC(=O)[C@H]([C@@H](C)CC)NC1=O [compound 221] ({CH2CO}-AV[NMePhe(3-Cl)]V[Trp(7-aza)]NYY(Carboxymethyl)IIE(NH(CH2CH2O)8Me)RE(NH(CH2CH2O)8Me)[NMeY]C[PEG4]-NH2; thioether N-15) | 1 to 100
CC[C@H](C)[C@@H]1NC(=O)[C@H](Cc2ccc(OCC(=O)O)cc2)NC(=O)[C@H](Cc2ccc(N)nc2)NC(=O)[C@H](CC(N)=O)NC(=O)[C@H](Cc2cn(CC(=O)O)c3ccccc23)NC(=O)[C@H](C(C)C)NC(=O)[C@H](Cc2cccc(Cl)c2)N(C)C(=O)[C@H](C(C)C)NC(=O)[C@H](C)NC(=O)CSC[C@@H](C(=O)NCCOCCOCCOCCOCCC(N)=O)NC(=O)[C@H](Cc2ccc(O)cc2)N(C)C(=O)[C@H](Cc2ccncc2)NC(=O)[C@H](CCCNC(=N)N)NC(=O)[C@H](CCC(=O)NCCOCCOCCOCCOCCOCCOCCOCCOC)NC(=O)[C@H]([C@@H](C)CC)NC1=O [compound 222] | 1 to 100
CC[C@H](C)[C@@H]1NC(=O)[C@H](Cc2ccc(OCC(=O)O)cc2)NC(=O)[C@H](Cc2ccc(N)nc2)NC(=O)[C@H](CC(N)=O)NC(=O)[C@H](Cc2cn(CC(=O)O)c3ccccc23)NC(=O)[C@H](C(C)C)NC(=O)[C@H](Cc2cccc(Cl)c2)N(C)C(=O)[C@H](C(C)C)NC(=O)[C@H](C)NC(=O)CSC[C@@H](C(=O)NCCOCCOCCOCCOCCC(N)=O)NC(=O)[C@H](Cc2ccc(O)cc2)N(C)C(=O)[C@H](Cc2cccc(C(=O)O)c2)NC(=O)[C@H](CCCNC(=N)N)NC(=O)[C@H](CCC(=O)NCCOCCOCCOCCOCCOCCOCCOCCOC)NC(=O)[C@H]([C@@H](C)CC)NC1=O [compound 223] ({CH2CO}-AV[NMePhe(3-Cl)]V[Trp(1-CH2COOH)]N[3Pal(6-NH2)]Y(Carboxymethyl)IIE(NH(CH2CH2O)8Me)R[Phe(3-COOH)][NMeY]C[PEG4]-NH2; thioether N-15) | 1 to 100

same assay, conditions: surface plasmon resonance, binding to hTfR; KD class symbol; read-out: SPR (KD value)

Structure (SMILES) | Kd [nM]
CC[C@H](C)[C@@H]1NC(=O)[C@H](Cc2ccc(OCC(=O)O)cc2)NC(=O)[C@H](Cc2ccc(O)cc2)NC(=O)[C@H](CC(N)=O)NC(=O)[C@H](Cc2c[nH]c3ncccc23)NC(=O)[C@H](C(C)C)NC(=O)[C@H](Cc2cccc(Cl)c2)N(C)C(=O)[C@H](C(C)C)NC(=O)[C@H](C)NC(=O)CSC[C@@H](C(=O)NCCOCCOCCOCCOCCC(N)=O)NC(=O)[C@H](Cc2ccc(O)cc2)N(C)C(=O)[C@H](Cc2ccncc2)NC(=O)[C@H](CCCNC(=N)N)NC(=O)[C@H](CCC(N)=O)NC(=O)[C@H]([C@@H](C)CC)NC1=O [compound 137] | 1 to 100
CC[C@H](C)[C@@H]1NC(=O)[C@H](Cc2ccc(OCC(=O)O)cc2)NC(=O)[C@H](Cc2ccc(O)cc2)NC(=O)[C@H](CC(N)=O)NC(=O)[C@H](Cc2c[nH]c3ncccc23)NC(=O)[C@H](C(C)C)NC(=O)[C@H](Cc2cccc(Cl)c2)N(C)C(=O)[C@H](C(C)C)NC(=O)[C@H](C)NC(=O)CSC[C@@H](C(=O)NCCOCCOCCOCCOCCC(N)=O)NC(=O)[C@H](Cc2ccc(O)cc2)N(C)C(=O)[C@H](Cc2ccncc2)NC(=O)[C@H](CCCCN2CCOCC2)NC(=O)[C@H](CCC(N)=O)NC(=O)[C@H]([C@@H](C)CC)NC1=O [compound 138] | 1 to 100
CC[C@H](C)[C@@H]1NC(=O)[C@H](Cc2ccc(OCC(=O)O)cc2)NC(=O)[C@H](Cc2ccc(O)cc2)NC(=O)[C@H](CC(N)=O)NC(=O)[C@H](Cc2c[nH]c3ncccc23)NC(=O)[C@H](C(C)C)NC(=O)[C@H](Cc2cccc(Cl)c2)N(C)C(=O)[C@H](C(C)C)NC(=O)[C@H](C)NC(=O)CSC[C@@H](C(=O)NCCOCCOCCOCCOCCC(N)=O)NC(=O)[C@H](Cc2ccc(O)cc2)N(C)C(=O)[C@H](Cc2ccncc2)NC(=O)[C@H](CCCCN2CCOCC2)NC(=O)[C@H](CCC(=O)NCCOCCOCCOCCOCCOCCOCCOCCOC)NC(=O)[C@H]([C@@H](C)CC)NC1=O [compound 139] | 1 to 100
CC[C@H](C)[C@@H]1NC(=O)[C@H](Cc2ccc(OCC(=O)O)cc2)NC(=O)[C@H](Cc2ccc(O)cc2)NC(=O)[C@H](CC(N)=O)NC(=O)[C@H](Cc2c[nH]c3ncccc23)NC(=O)[C@H](C(C)C)NC(=O)[C@H](Cc2cccc(Cl)c2)N(C)C(=O)[C@H](C(C)C)NC(=O)[C@H](C)NC(=O)CSC[C@@H](C(=O)NCCOCCOCCOCCOCCC(N)=O)NC(=O)[C@H](Cc2ccc(O)cc2)N(C)C(=O)[C@H](Cc2cccc(C(=O)O)c2)NC(=O)[C@H](CCCCN2CCOCC2)NC(=O)[C@H](CCC(N)=O)NC(=O)[C@H]([C@@H](C)CC)NC1=O [compound 140] ({CH2CO}-AV[NMePhe(3-Cl)]V[Trp(7-aza)]NYY(Carboxymethyl)IIQ[Nle(6-morpholino)][Phe(3-COOH)][NMeY]C[PEG4]-NH2; thioether N-15) | 1 to 100
CC[C@H](C)[C@@H]1NC(=O)[C@H](Cc2ccc(OCC(=O)O)cc2)NC(=O)[C@H](Cc2ccc(N)nc2)NC(=O)[C@H](CC(N)=O)NC(=O)[C@H](Cc2c[nH]c3ccccc23)NC(=O)[C@H](C(C)C)NC(=O)[C@H](Cc2cccc(Cl)c2)N(C)C(=O)[C@H](C(C)C)NC(=O)[C@H](C)NC(=O)CSC[C@@H](C(=O)NCCOCCOCCOCCOCCC(N)=O)NC(=O)[C@H](Cc2ccc(O)cc2)N(C)C(=O)[C@H](Cc2ccncc2)NC(=O)[C@H](CCCNC(=N)N)NC(=O)[C@H](CCC(=O)NCCOCCOCCOCCOCCOCCOCCOCCOC)NC(=O)[C@H]([C@@H](C)CC)NC1=O [compound 141] | 100 to 1000
